Results as given in patent US20250230124A1, “SMALL MOLECULE INHIBITORS OF ID PROTEINS” (MEMORIAL SLOAN-KETTERING CANCER CENTER, priority 2022, published 2025).

Tests used:
cells = assay: Cell killing / cell viability assay; type: cell-based
Protocol: Cell viability assays. Cell lines will be seeded in a 96 well plate (5000 cells per well). After overnight incubation, cells will be treated with a compound of the present technology and incubated for 24 hours then MTT reagent (5 mg/mL) will be added per well and the cells will be incubated for four hours. Following incubation, media will be aspirated and 200 μL DMSO will be added per well. Absorbance will then be measured at 570 nm using a plate reader (Synergy 2, BioTek). Cell growth profiles will be determined by seeding 38,000 cells in a 24-well plate, in triplicate for each time point, and counting the cells on days 1, 3 and 5 after seeding, using trypan blue exclusion of dead cells.

DU145 cells = assay: Prostate cancer cell morphology, growth and death; type: cell-based; conditions: for outcome of treatment of DU145 cells: after six days; for effect on DU145 cells (health, proliferation): after three days
Protocol: Prostate cancer cell lines DU145 and PC3 (in 10% BCS) will be cultured in Ham's F12 (Gibco, Carlsbad, Calif.) medium containing 10% BCS (Hyclone, Logan, Utah) and appropriate antibiotics (pen/strep, fungizaone, and gentamycin (Invitrogen Inc., Carlsbad, Calif.). All cells will be cultured at 37° C. in a fully humidified atmosphere containing 5% CO2.
At 50% confluence, the cells will be treated with either 100 μM DMSO, AGX51, AGX-A, or a compound of the present technology. The cell morphology and growth will be monitored daily for 1 week by microscopy for changes in morphology or cell death. Apoptosis will be determined by measuring caspase 3 and caspase 7 activities using the Caspase-Glo 3/7 Assay system from Promega (Madison, Wis.).

[1] = test system: CD31-positive microvessels in Matrigel plugs; assay: Anti-angiogenic activity in VEGF-165 and FGF-2 treated Matrigel plugs; type: in vivo, mouse; conditions: for protection from new blood vessel formation: compared to vehicle control animals; for presence of endothelial cells in Matrigel plugs: mouse, in vivo
Protocol: VEGF-165 and FGF-2 treated Matrigel plugs will be implanted on Day 0 into C57BL/6 mice. Mice will be treated with either vehicle, AGX51, AGX-A, or a compound of the present technology. The AGX51, AGX-A, and compound of the present technology will be provided either in the plugs (25 μg/mg) or by daily ip treatment (30 or 100 mg/kg) for 10 days. Plugs will be harvested on Day 10, fixed and paraffin embedded. Three sections ([…] thickness) of each plug will be stained with an anti-CD31 antibody and counterstained with hematoxylin and eosin stain. CD31-positive microvessels will be counted for one entire cross-section per plug and the average micro-vessel density±SD vessels will be determined. Student's t-test will be used for statistical analysis.

LLC cancer cells = assay: Metastatic activity in LLC mouse model; type: in vivo; conditions: daily ip
Protocol: Thirty C57BL/6 mice will be implanted with 7.5×10^5 LLC cancer cells/animal. Seven days after implantation, 5M/5F per group will be treated daily ip for 25 days with dosing vehicle (DMSO), AGX51, AGX-A, or a compound of the present technology. Fourteen days after implantation, another group of 5M/5F animals will be treated daily ip for 18 days with 50 mg/kg of AGX51, another group of 5M/5F animals will be treated daily ip for 18 days with 50 mg/kg of AGX-A, and another group of 5M/5F animals will be treated daily ip for 18 days with a compound of the present technology. Tumors will be measured three times from Day 7 to 14. On Day 14, the tumors will be excised. The animals will be necropsied for the presence of lung metastases on day 32, 18 days post excision.

ID1 = biological target: T1, ID1 (Homo sapiens, UniProt P41134); assay: Activity against ID1 in cells (Western Blot); type: cell-based
T1 construct: endogenous in cells
T1 sequence (P41134 1-155): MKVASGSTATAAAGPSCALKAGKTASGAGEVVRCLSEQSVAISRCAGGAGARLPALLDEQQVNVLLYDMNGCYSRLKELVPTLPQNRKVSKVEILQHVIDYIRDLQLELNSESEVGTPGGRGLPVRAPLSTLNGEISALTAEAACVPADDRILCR

[2] = test system: cholangiocarcinoma PDX RomeP_PHCH_X_0008a; assay: Murine patient-derived xenograft model of cholangiocarcinoma, tumor volume; type: in vivo, mouse; conditions: NSG mice, 50 or 100 mg/kg p.o. BIDx5 x 4 weeks
Text: An animal model of cholangiocarcinoma predictive of anti-cholangiocarcinoma drug efficacy in humans, as described in Mattar, M. et al. Establishing and Maintaining an Extensive Library of Patient-Derived Xenograft Models. Front Oncol. 2018 Feb.
• Mice: NSG females, 6-8 weeks old • PDX: RomeP_PHCH_X_0008a, serially transplanted sc with matrigel • Treatment Groups (at least 5 animals/group): treatments started when tumors reached 100 mm^3 (“Day 0” for each animal), dosed via oral gavage • Group 1. Saline with 10% by weight 2-hydroxypropyl-β-cyclodextrin (“Vehicle”), p.o. twice daily for 5 days per week (“BIDx5”) for 4 weeks (“×4 weeks”) • Group 2. AGX-A 50 mg/kg in Vehicle, p.o. BIDx5×4 weeks • Group 3. AGX-A 100 mg/kg in Vehicle, p.o. BIDx5×4 weeks • Group 4. AGX-502 50 mg/kg in Vehicle, p.o. BIDx5×4 weeks • Group 5. AGX-502 100 mg/kg in Vehicle, p.o. BIDx5×4 weeks.
Tumor volumes, weights, and clinical signs were monitored a minimum of twice per week for each animal in each group throughout the study. Mice were sacrificed by CO2 asphyxiation once the tumor volume exceeded 2000 mm^3 or body weight loss was higher than 10%. Upon completion of the experiment, tumors were harvested and processed for immunoblotting and/or immunohistochemistry assays.

Structure (SMILES) | time to complete cell killing (cells) | outcome of treatment of DU145 cells (DU145 cells) | effect on DU145 cells (health, proliferation) (DU145 cells) | protection from new blood vessel formation [1] | presence of endothelial cells in Matrigel plugs [1] | lung metastases (LLC cancer cells) | activity against ID1 in cells (ID1) | activity by Western Blot (ID1) | activity by cell killing (cells) | IC50 (24 h) (cells; 24 h, initial testing) | anti-cancer efficacy (tumor volume) [2]
COc1ccccc1C(CCNCc1ccccc1)c1ccc(OC(C)C)cc1 (centres unmarked) [AGX-A, N-benzyl-3-(4-isopropoxyphenyl)-3-(2-methoxyphenyl)propan-1-amine] | ≤ 24 h | cell death | pronounced effect | significant protection | significantly decrease | profoundly diminish | – | – | – | – | –
CCC(=O)N(CCC(c1ccc2c(c1)OCO2)c1ccccc1OC)Cc1ccccc1 (racemic) [AGX51, N-(3-(benzo[d][1,3]dioxol-5-yl)-3-(2-methoxyphenyl)propyl)-N-benzylpropionamide] | – | cell death | pronounced effect | significant protection | significantly decrease | profoundly diminish | – | – | – | – | –
COc1ccccc1C(CCNC(C)c1ccccc1)c1ccc(OC(C)C)cc1 (centres unmarked) [AGX-502] | ≤ 8 h | – | – | – | – | – | significant activity | very active | very active | significantly favorable | dose-dependent anti-cancer efficacy
